{"source": "paper PMC7434893", "about": "(British Journal of Cancer, 2020)", "key": {"PARP": {"tested_on": "PARP", "assay": "PARP inhibition by PAR levels in PBMCs (ELISA)", "assay_type": "in vivo, human", "method": "Inhibition of PARP activity was measured by quantifying PAR in PBMCs using an enzyme-linked immunosorbent assay (HT PARP in vivo Pharmacodynamic Assay II kit). PAR levels in PBMCs and the percentage change from baseline were summarised by dose and nominal sampling time point."}, "advanced solid tumours": {"tested_on": "advanced solid tumours", "assay": "Clinical outcome by 2X-121 DRP prediction", "assay_type": "in vivo, human", "excerpt": "Matching baseline transcriptome and growth inhibition data were available for 61 of the 74 cell lines, and were used to develop a DRP as previously described.[21],[22] Briefly, IC50 values in the 61 cell lines were correlated to gene-expression levels in the same cell lines; 172 genes with a Pearson correlation above 0.25 were retained as potential markers of sensitivity, while 242 genes with a Pearson correlation below −0.25 were retained as potential markers of resistance. The 414 genes were searched in PubMed for known associations to DNA damage response or Wnt/β-catenin pathways. The 111 pathway-associated genes are shown in Supplementary Table 2. Archival biopsies, in the form of formalin-fixed paraffin-embedded blocks and slides, were obtained from patients in the trial. Only those samples that yielded RNA of sufficient quantity and quality were evaluated for gene expression. The expression of the 414 genes in the 2X-121 DRP was analysed via a custom Affymetrix U133_Plus2 microarray according to the manufacturer’s instructions. The 2X-121 DRP was applied in a blinded manner following a prespecified analysis plan. The difference between the means of the genes that were positively correlated and those negatively correlated to response was used as a single prediction score for each patient, after normalisation to a range of 0–100.\nAs a first-in-human phase 1 clinical trial, no formal sample-size calculation or hypothesis testing was undertaken. Analysis of biomarker predictions was performed using a 1-sided Pearson correlation test and a 1-sided log-rank test for time-to-event data according to a prespecified analysis plan."}, "Hs578T": {"tested_on": "Hs578T", "assay": "8-day growth inhibition", "assay_type": "cell-based", "details": "Breast, 8-day assay"}, "HCC1143": {"tested_on": "HCC1143", "assay": "8-day growth inhibition", "assay_type": "cell-based", "details": "Breast, HCC1143, 8-day assay"}, "MCF-7": {"tested_on": "MCF-7", "assay": "8-day growth inhibition", "assay_type": "cell-based", "details": "Breast, MCF-7, 8-day assay"}, "A549": {"tested_on": "A549", "assay": "8-day growth inhibition", "assay_type": "cell-based", "details": "NSCLC, A549, 8-day assay"}, "SF-295": {"tested_on": "SF-295", "assay": "8-day growth inhibition", "assay_type": "cell-based", "details": "GBM, SF-295, 8-day assay"}, "HCT-116": {"tested_on": "HCT-116", "assay": "8-day growth inhibition", "assay_type": "cell-based", "details": "Colon, HCT-116, 8-day assay"}, "HepG2": {"tested_on": "HepG2", "assay": "8-day growth inhibition", "assay_type": "cell-based", "details": "HCC, HepG2, 8-day assay"}, "C3A": {"tested_on": "C3A", "assay": "8-day growth inhibition", "assay_type": "cell-based", "details": "HCC, 8-day assay"}, "SNU-423": {"tested_on": "SNU-423", "assay": "8-day growth inhibition", "assay_type": "cell-based", "details": "HCC, SNU-423, 8-day assay"}, "HEC-1": {"tested_on": "HEC-1", "assay": "8-day growth inhibition", "assay_type": "cell-based", "details": "Endometrial, HEC-1, 8-day assay"}, "HEC-108": {"tested_on": "HEC-108", "assay": "8-day growth inhibition", "assay_type": "cell-based", "details": "Endometrial, HEC-108, 8-day assay"}, "HEC-1A": {"tested_on": "HEC-1A", "assay": "8-day growth inhibition", "assay_type": "cell-based", "details": "Endometrial, 8-day assay"}, "HEC-88nu": {"tested_on": "HEC-88nu", "assay": "8-day growth inhibition", "assay_type": "cell-based", "details": "Endometrial, 8-day assay"}, "MFE-280": {"tested_on": "MFE-280", "assay": "8-day growth inhibition", "assay_type": "cell-based", "details": "Endometrial, MFE-280, 8-day assay"}, "HEC-151": {"tested_on": "HEC-151", "assay": "8-day growth inhibition", "assay_type": "cell-based", "details": "Endometrial, HEC-151, 8-day assay"}, "NCI-H1694": {"tested_on": "NCI-H1694", "assay": "8-day growth inhibition", "assay_type": "cell-based", "details": "SCLC, NCI-H1694, 8-day assay"}, "NCI-H146": {"tested_on": "NCI-H146", "assay": "8-day growth inhibition", "assay_type": "cell-based", "details": "SCLC, NCI-H146, 8-day assay"}, "NCI-H211": {"tested_on": "NCI-H211", "assay": "8-day growth inhibition", "assay_type": "cell-based", "details": "SCLC, NCI-H211, 8-day assay"}, "NCI-H69": {"tested_on": "NCI-H69", "assay": "8-day growth inhibition", "assay_type": "cell-based", "details": "SCLC, NCI-H69, 8-day assay"}, "MC/CAR": {"tested_on": "MC/CAR", "assay": "8-day growth inhibition", "assay_type": "cell-based", "details": "Myeloma, 8-day assay"}, "Pfeiffer": {"tested_on": "Pfeiffer", "assay": "8-day growth inhibition", "assay_type": "cell-based", "details": "DLBCL (GC), 8-day assay"}, "Mino": {"tested_on": "Mino", "assay": "8-day growth inhibition", "assay_type": "cell-based", "details": "MCL, 8-day assay"}, "NCEB-1": {"tested_on": "NCEB-1", "assay": "8-day growth inhibition", "assay_type": "cell-based", "details": "MCL, NCEB-1, 8-day assay"}, "THP-1": {"tested_on": "THP-1", "assay": "8-day growth inhibition", "assay_type": "cell-based", "details": "AML, THP-1, 8-day assay"}, "RPMI-8226": {"tested_on": "RPMI-8226", "assay": "8-day growth inhibition", "assay_type": "cell-based", "details": "Myeloma, RPMI-8226, 8-day assay"}, "PARP2": {"tested_on": "PARP2", "details": "read-out: IC50, enzymatic activity of PARP2; cited from earlier work"}, "[1]": {"details": "6 patients predicted sensitive by 2X-121 DRP (cut-off 50)"}, "[2]": {"details": "7 patients predicted not sensitive by 2X-121 DRP"}}}
{"smiles": "O=c1[nH]nc2c3c(cccc13)N=C(CN1Cc3ccccc3C1)N2", "note": "[E7449]", "values": [{"measurement": "Time of maximal decrease in PAR levels after administration", "setting": "PARP; 600 mg, fasted cohort", "value": "[…]"}, {"measurement": "Time of maximal decrease in PAR levels post treatment", "setting": "PARP; 600 mg, fed cohort", "value": "4 to 8", "unit": "h"}, {"measurement": "Decrease in PAR levels", "setting": "PARP; 24-h post-dose time points (cycle 1, days 1, 7, 8 and 16)", "value": "≥ 70", "unit": "%"}, {"measurement": "Population mean PARP inhibition", "setting": "PARP; MTD 600 mg once daily, steady state, PAR in PBMCs", "value": "approximately 90%"}, {"measurement": "Inhibition in PAR levels from baseline", "setting": "PARP; food-effect cohorts, 600 mg", "value": "up to 90%"}, {"measurement": "Median overall survival", "setting": "advanced solid tumours; [1]", "value": "> 800", "unit": "days"}, {"measurement": "Median time to progression", "setting": "advanced solid tumours; [1]", "value": 296, "unit": "days"}, {"measurement": "Median overall survival", "setting": "advanced solid tumours; [2]", "value": 208, "unit": "days"}, {"measurement": "Median time to progression", "setting": "advanced solid tumours; [2]", "value": 155, "unit": "days"}, {"measurement": "IC50", "setting": "Hs578T", "value": 9.6, "unit": "µM"}, {"measurement": "IC50", "setting": "HCC1143", "value": 3.7, "unit": "µM"}, {"measurement": "IC50", "setting": "MCF-7", "value": 1900, "unit": "nM"}, {"measurement": "IC50", "setting": "A549", "value": 2200, "unit": "nM"}, {"measurement": "IC50", "setting": "SF-295", "value": 2600, "unit": "nM"}, {"measurement": "IC50", "setting": "HCT-116", "value": 1700, "unit": "nM"}, {"measurement": "IC50", "setting": "HepG2", "value": 3.8, "unit": "µM"}, {"measurement": "IC50", "setting": "C3A", "value": 2540, "unit": "nM"}, {"measurement": "IC50", "setting": "SNU-423", "value": 19, "unit": "µM"}, {"measurement": "IC50", "setting": "HEC-1", "value": 1280, "unit": "nM"}, {"measurement": "IC50", "setting": "HEC-108", "value": 5.97, "unit": "µM"}, {"measurement": "IC50", "setting": "HEC-1A", "value": 2960, "unit": "nM"}, {"measurement": "IC50", "setting": "HEC-88nu", "value": 1140, "unit": "nM"}, {"measurement": "IC50", "setting": "MFE-280", "value": 770, "unit": "nM"}, {"measurement": "IC50", "setting": "HEC-151", "value": 1440, "unit": "nM"}, {"measurement": "IC50", "setting": "NCI-H1694", "value": 2470, "unit": "nM"}, {"measurement": "IC50", "setting": "NCI-H146", "value": 930, "unit": "nM"}, {"measurement": "IC50", "setting": "NCI-H211", "value": 480, "unit": "nM"}, {"measurement": "IC50", "setting": "NCI-H69", "value": 1330, "unit": "nM"}, {"measurement": "IC50", "setting": "MC/CAR", "value": 2300, "unit": "nM"}, {"measurement": "IC50", "setting": "Pfeiffer", "value": 710, "unit": "nM"}, {"measurement": "IC50", "setting": "Mino", "value": 3.4, "unit": "µM"}, {"measurement": "IC50", "setting": "NCEB-1", "value": 5.3, "unit": "µM"}, {"measurement": "IC50", "setting": "THP-1", "value": 5.4, "unit": "µM"}, {"measurement": "IC50", "setting": "RPMI-8226", "value": 9.3, "unit": "µM"}, {"measurement": "IC50", "setting": "PARP2", "value": "[…]"}]}
